Experiment [1] has as its target T1, Sortilin (Homo sapiens, UniProt Q99523).
T1 construct: purchased Bio-Techne Ltd 3154-ST-050
T1 sequence (Q99523 78-755 limits assumed): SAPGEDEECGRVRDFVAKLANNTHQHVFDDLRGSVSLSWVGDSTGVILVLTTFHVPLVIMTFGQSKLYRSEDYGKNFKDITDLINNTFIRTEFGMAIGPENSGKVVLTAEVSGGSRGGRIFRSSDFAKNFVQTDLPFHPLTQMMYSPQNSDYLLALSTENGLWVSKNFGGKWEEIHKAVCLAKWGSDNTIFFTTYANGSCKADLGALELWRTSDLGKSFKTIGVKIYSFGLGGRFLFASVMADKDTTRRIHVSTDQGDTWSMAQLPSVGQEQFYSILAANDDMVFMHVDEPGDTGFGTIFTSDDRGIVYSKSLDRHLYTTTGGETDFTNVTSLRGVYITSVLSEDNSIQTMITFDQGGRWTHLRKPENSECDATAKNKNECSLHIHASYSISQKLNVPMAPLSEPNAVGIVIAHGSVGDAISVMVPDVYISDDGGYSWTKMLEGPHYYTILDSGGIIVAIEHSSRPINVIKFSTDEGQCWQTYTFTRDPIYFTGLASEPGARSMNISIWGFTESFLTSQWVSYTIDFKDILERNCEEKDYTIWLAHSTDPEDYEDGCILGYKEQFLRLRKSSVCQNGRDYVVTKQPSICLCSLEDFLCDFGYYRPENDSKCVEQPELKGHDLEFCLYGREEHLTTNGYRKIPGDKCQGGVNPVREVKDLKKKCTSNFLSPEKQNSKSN
Briefly: Creoptix (GCI) binding kinetics, human Sortilin. Particulars: Species Human, screened at 1 µM, 25 degrees Celsius. The protocol: (§1) Creoptix (GCI) method - using SEQ ID NO.4 (Murine sortillin)
(§2) A protein, bound to a surface, is bathed in a solution containing potential ligands giving rise to binding kinetics to generate Kon and Koff rates, as well as a Kd.
(§3) All buffers described were filtered using a 0.2µm filter (Product number: 10300461, Nalgene) and degassed for 15 minutes prior to use.
(§4) A flow cell temperature of 25 degrees Celsius was used throughout the experiment.
(§5) A 4PCH chip was conditioned across all flow cells using 0.2 X concentration running buffer (running buffer composition: 1XHBS-N, pH 7.4, 3.4 mM EDTA, 1% DMSO) using pre-set conditioning wizard (WAVE control software) injecting: 0.1 M borate, 1 M NaCl (pH 9) followed by three start-up injections of 0.2 X running buffer.
(§6) A buffer exchange was performed and 1x running buffer (1XHBS-N, pH 7.4, 3.4 mM EDTA, 1% DMSO) used during the immobilisation procedure: An initial injection of EDC/NHS (mixed in 1:1 ratio) was performed across all 4-flow cells to activate the surface for amine coupling of ligands.
(§7) Recombinant Sortilin aliquots were thawed quickly by hand and centrifuged at 13,300 rpm for 10 minutes. A 10 µg/ml protein solution was then made in pH 5.0 acetate and injected once for 20 minutes over flow-cells 2, 3 and 4 for human, human (flow cells 2 & 3), and mouse Sortilin respectively followed by a 60 second dissociation period.
(§8) A final 7-minute passivation injection of 50 mM tris was used across all flow cells.
(§9) A flow rate of 10 µl/min was used for all conditioning and immobilisation cycles.
(§10) Compounds were screened at 1 µM using the in-built 'intermediate binders' settings: 100 ul/min, 45 s baseline, 25 s association, 300 s dissociation, with blanks every 5th sample and a DMSO correction (1.5 % DMSO at the start and end of the experiment as well as every 20 cycles. An acquisition rate of 10 Hz was used throughout the experiment.
(§11) Compounds were screened at a final assay concentration of 1 µM and a final DMSO concentration was 1 %. To achieve this, compounds were diluted in DMSO from 10 mM stocks to 100 µM (100 x final assay concentration) then diluted 1:100 in running buffer which contained no DMSO to establish a final assay concentration of compound of 1 µM and a final DMSO concentration of 1 % [DMSO].
(§12) Compounds and DMSO were mixed by plate shaking at 1000 rpm for 60 seconds using a Bioshake instrument.
(§13) A flow rate of 100 µl/min was used throughout the experiment.
(§14) Data was evaluated using the RAPID kinetic analysis tool in the GCI WAVE_control software with data fitted using a standard 1:1 kinetic BioModel.

Experiment [2] deals with T2, Sortilin (Mus musculus, UniProt Q6PHU5).
T2 construct: purchased Bio-Techne Ltd 2934-ST-050
T2 sequence (Q6PHU5 76-753 limits assumed): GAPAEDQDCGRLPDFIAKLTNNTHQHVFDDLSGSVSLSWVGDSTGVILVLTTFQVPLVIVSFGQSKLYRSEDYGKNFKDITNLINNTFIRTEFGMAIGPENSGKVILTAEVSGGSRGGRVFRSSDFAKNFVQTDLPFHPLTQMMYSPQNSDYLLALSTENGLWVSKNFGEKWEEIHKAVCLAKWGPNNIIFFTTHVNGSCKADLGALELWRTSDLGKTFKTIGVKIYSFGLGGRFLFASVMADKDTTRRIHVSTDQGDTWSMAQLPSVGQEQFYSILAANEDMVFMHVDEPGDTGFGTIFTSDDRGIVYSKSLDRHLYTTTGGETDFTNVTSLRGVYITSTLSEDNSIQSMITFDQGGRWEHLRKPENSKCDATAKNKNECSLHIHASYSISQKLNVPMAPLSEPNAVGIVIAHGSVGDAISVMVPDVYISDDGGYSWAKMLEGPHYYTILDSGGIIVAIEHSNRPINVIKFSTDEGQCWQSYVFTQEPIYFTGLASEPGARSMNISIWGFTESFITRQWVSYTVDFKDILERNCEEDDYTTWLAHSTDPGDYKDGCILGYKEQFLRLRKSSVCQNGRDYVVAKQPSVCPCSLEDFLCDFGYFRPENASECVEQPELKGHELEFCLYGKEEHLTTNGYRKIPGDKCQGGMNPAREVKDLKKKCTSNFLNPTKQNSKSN
Briefly: Creoptix (GCI) binding kinetics, mouse Sortilin. Particulars: Species Mouse, screened at 1 µM, 25 degrees Celsius. The protocol:
as §1, §2, §3, §4, §5, §6, §7, §8, §9, §10, §11, §12, §13, §14

The next experiment concerns the target T3, h-Sortilin (Homo sapiens, UniProt Q99523).
T3 sequence (Q99523 78-831): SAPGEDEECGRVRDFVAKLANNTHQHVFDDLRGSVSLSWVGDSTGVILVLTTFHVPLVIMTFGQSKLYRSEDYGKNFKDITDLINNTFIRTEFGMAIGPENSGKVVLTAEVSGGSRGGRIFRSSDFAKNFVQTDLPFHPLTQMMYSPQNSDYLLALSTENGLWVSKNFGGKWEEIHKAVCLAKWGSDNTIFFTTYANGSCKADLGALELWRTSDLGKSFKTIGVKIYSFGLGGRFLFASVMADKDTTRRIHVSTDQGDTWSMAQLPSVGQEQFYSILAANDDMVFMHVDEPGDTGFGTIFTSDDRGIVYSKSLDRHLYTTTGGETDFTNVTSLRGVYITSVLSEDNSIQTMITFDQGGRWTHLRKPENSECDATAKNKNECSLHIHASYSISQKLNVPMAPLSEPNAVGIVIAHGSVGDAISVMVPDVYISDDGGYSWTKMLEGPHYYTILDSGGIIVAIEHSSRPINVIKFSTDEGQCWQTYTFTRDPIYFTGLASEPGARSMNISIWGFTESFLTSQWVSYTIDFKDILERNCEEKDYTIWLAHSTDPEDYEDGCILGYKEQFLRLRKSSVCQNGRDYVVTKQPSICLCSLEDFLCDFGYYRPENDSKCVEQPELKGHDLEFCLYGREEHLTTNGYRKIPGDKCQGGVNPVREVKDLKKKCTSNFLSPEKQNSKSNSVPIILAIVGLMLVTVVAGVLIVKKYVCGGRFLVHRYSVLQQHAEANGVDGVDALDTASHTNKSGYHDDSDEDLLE
Briefly: Neurotensin scintillation proximity assay (displacement of [3H]-neurotensin binding). As to conditions: 150 nM 6his-Sortilin, 5 nM [3H]-Neurotensin; average of at least 2 determinations; read-out: IC50 [3H]Neurotensin SPA. Here is the method:
The exemplified compounds of the invention were tested in a Neurotensin (NTS) scintillation proximity assay (SPA). NTS, which is a 13 amino acid neuropeptide, is a sortilin ligand. The IC50 is a measure of the amount of the compound required to inhibit the binding of NTS to sortilin by 50%. The skilled person will recognise that the lower the IC50 value, the less of the compound needed to achieve the desired effect, and as a result, the chances of undesirable off-target effects are reduced.
Compound affinity was determined by measuring the displacement of [3H]-neurotensin binding to h-Sortilin in SPA format. Total volume of 40 µl in 50 mM HEPES pH 7.4 assay buffer containing 100 mM NaCl, 2.0 mM CaCl2, 0.1% BSA and 0.1% Tween-20. Compound pre-incubation for 30 minutes at room temperature with 150 nM of 6his-Sortilin before 5 nM [3H]-Neurotensin and Ni chelate imaging beads (Perkin Elmer) were added, after 6 hours the plate was read on a ViewLux with 360 s exposure time. Dose-response evaluation of compounds was performed with 8 concentrations of drugs (covering 3 decades). IC50 values were calculated by nonlinear regression using the sigmoid concentration-response (variable slope) using CDD Vault software. All values reported are average of at least 2 determinations.
On the technique in general: SPA uses beads or plates that emit light when radiolabelled molecules are held near them.

Regarding `CN1CCOc2cc(CN[C@@H](CCC(C)(C)C)C(=O)O)ccc21` [Example 19, (S)-5,5-dimethyl-2-(((4-methyl-3,4-dihydro-2H-benzo[b][1,4]oxazin-7-yl)methyl)amino)hexanoic acid], the Kd at Sortilin [1] (Form of Compound Free acid) is 3720 nM; on Sortilin [2] (Form of Compound Free acid) it was 3180 nM. Besides, on h-Sortilin, the IC50 amounted to 660 nM.

As to `CN1CCOc2ccc(CN[C@@H](CCC(C)(C)C)C(=O)O)cc21` [Example 30, (2S)-5,5-dimethyl-2-{[(4-methyl-3,4-dihydro-2H-1,4-benzoxazin-6-yl)methyl]amino}hexanoic acid], the Kd at Sortilin [1] (Form of Compound Free acid) is 5070 nM; on Sortilin [2] (Form of Compound Free acid), 7600 nM. In addition, the IC50 on h-Sortilin was determined as 350 nM.

Consider `CN1CCc2cc(CN[C@@H](CCC(C)(C)C)C(=O)O)ccc2C1` [Example 10, (S)-5,5-dimethyl-2-(((2-methyl-1,2,3,4-tetrahydroisoquinolin-6-yl)methyl)amino)hexanoic acid], for which the Kd at Sortilin [1] (Form of Compound Free acid) amounted to 200 nM; at Sortilin [2] (Form of Compound Free acid), 241 nM. Besides, the IC50 on h-Sortilin was determined as 640 nM.

Regarding `CC(C)(C)CC[C@H](NCc1ccc2c(c1)CNCC2)C(=O)O` [Example 18, (2S)-5,5-dimethyl-2-{[(1,2,3,4-tetrahydroisoquinolin-7-yl)methyl]amino}hexanoic acid], the results for the Kd at Sortilin [1] (Form of Compound Free acid) and at Sortilin [2] (Form of Compound Free acid) were 1420 nM and 2280 nM, respectively. Also, the IC50 at h-Sortilin came out at 500 nM.

`C[C@H](N[C@@H](CCC(C)(C)C)C(=O)O)c1ccc2c(c1)CCOC2` [Example 59]: the Kd on Sortilin [1] (Form of Compound Mesylate salt) stood at 218 nM; at Sortilin [2] (Form of Compound Mesylate salt), 204 nM. Further, the IC50 at h-Sortilin came to 320 nM.

Turning to `CC(C)(C)CC[C@H](N[C@@H](c1ccc2c(c1)CCCC2)C(F)(F)F)C(=O)O` [Example 47], on Sortilin [1] (Form of Compound Free acid), binding was characterised by a dissociation constant (Kd) of 75.3 nM. Also, the IC50 on h-Sortilin is 160 nM.

`CC(C)(C)CC[C@H](N[C@H](c1ccc2c(c1)OCCC2)C(F)F)C(=O)O` [Example 56]: at Sortilin [1] (Form of Compound Free acid), the affinity, expressed as Kd, was 696 nM. For the same compound, the IC50 on h-Sortilin turned out to be 310 nM.

In the case of `CC(C)(C)CC[C@H](NCc1cccc(Oc2ccccc2)c1)C(=O)O` [Example 34], the Kd on Sortilin [1] (Form of Compound Free acid) was determined as 216 nM. Further, the concentration for half-maximal inhibition (IC50) at h-Sortilin was determined as 820 nM.

For the compound “(2S)-5,5-dimethyl-2-{[(5,6,7,8-tetrahydronaphthalen-2-yl)methyl]amino}hexanoic acid [Example 4]”, the figures for the Kd on Sortilin [1] (Form of Compound Free acid), at Sortilin [1] (Form of Compound HCl salt) and on Sortilin [1] (Form of Compound Mesylate salt) were 40.9 nM, 51.7 nM and 42.5 nM, respectively. For the same compound, the IC50 at h-Sortilin turned out to be 120 nM.

Consider `CC(C)(C)CC[C@H](N[C@@H](c1cnc2c(c1)CCCC2)C(F)(F)F)C(=O)O` [Example 33, (2S)-5,5-dimethyl-2-{[(1S)-2,2,2-trifluoro-1-(5,6,7,8-tetrahydroquinolin-3-yl)ethyl]amino}hexanoic acid], for which the Kd on Sortilin [1] (Form of Compound Free acid) was 28 nM. For the same compound, the IC50 at h-Sortilin was 130 nM.

With `Cn1c(=O)oc2cc(CN[C@@H](CCC(C)(C)C)C(=O)O)ccc21` [Example 22, (2S)-5,5-dimethyl-2-{[(3-methyl-2-oxo-2,3-dihydro-1,3-benzoxazol-6-yl)methyl]amino}hexanoic acid], binding at Sortilin [1] (Form of Compound Free acid) was put at a Kd of 350 nM. Also, the IC50 at h-Sortilin was found to be 470 nM.

Take `C[C@@H](N[C@@H](CCC(C)(C)C)C(=O)O)c1ccc2c(c1)CCCC2` [Example 11, (S)-5,5-dimethyl-2-(((R)-1-(5,6,7,8-tetrahydronaphthalen-2-yl)ethyl)amino)hexanoic acid]: the Kd was determined as 36.6 nM on Sortilin [1] (Form of Compound Free acid) and 40.7 nM at Sortilin [1] (Form of Compound Mesylate salt). Moreover, the IC50 on h-Sortilin was 120 nM.

On to `CC(C)(C)CC[C@H](NCc1ccc2c(c1)OCCC2)C(=O)O` [Example 5, (2S)-2-{[(3,4-dihydro-2H-1-benzopyran-7-yl)methyl]amino}-5,5-dimethylhexanoic acid], for which, on Sortilin [1] (Form of Compound Free acid), the Kd was determined as 63.4 nM. On h-Sortilin, the IC50 turned out to be 310 nM.

`CC(C)(C)CC[C@H](N[C@H](c1ccc2c(c1)CCCC2)C(F)F)C(=O)O` [Example 71]: the Kd at Sortilin [1] (Form of Compound Free acid) came out at 193 nM. In addition, the IC50 at h-Sortilin stood at 590 nM.

What is called Kd is the constant that tells how readily two partners part at equilibrium. The term IC50 denotes the concentration that gives 50% inhibition.
